Assays:
HiBit-BRM fusion protein = target: T1, HiBit-BRM fusion protein (Homo sapiens, UniProt P51531); assay: HiBiT-BRM cell-based degradation assay (Nano-Glo HiBiT Lytic Detection, 24 h); details: stable HeLa cell line expressing HiBiT-BRM; for DC50: read-out: BRM HiBit Degradation IC50
T1 construct: expressed in transfected cells
Summary of the method: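 Luminescence from LgBiT complementation after lysis measured HiBiT-BRM levels in stably expressing HeLa cells. Compounds were dosed at up to 30 μM final, in 3-fold 10-point dilutions, for 24 h. Percent degradation was scaled between DMSO wells and wells treated with 2 μM standard BRM/BRG1 degrader.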

[1] = target: T2, HiBit-BRG1 fusion protein (Homo sapiens, UniProt P51532); assay: HiBiT-BRG1 cell-based degradation assay (Nano-Glo HiBiT Lytic Detection, 24 h); details: stable HeLa cell line expressing HiBit-BRG1 and LgBit; for Dmax: read-out: BRG1 HiBit Degradation Maximum (%)
T2 construct: expressed in transfected cells
Summary of the method: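 Degradation read by lytic NanoBiT luminescence after 24 h compound exposure of a stable HiBit-BRG1/LgBit HeLa line. Ten-point, 3-fold series in duplicate, top final dose 30 μM; DMSO and 2 μM standard degrader define 0% and 100% degradation.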

T1 sequence (P51531 whole entry, the tested form may be a part): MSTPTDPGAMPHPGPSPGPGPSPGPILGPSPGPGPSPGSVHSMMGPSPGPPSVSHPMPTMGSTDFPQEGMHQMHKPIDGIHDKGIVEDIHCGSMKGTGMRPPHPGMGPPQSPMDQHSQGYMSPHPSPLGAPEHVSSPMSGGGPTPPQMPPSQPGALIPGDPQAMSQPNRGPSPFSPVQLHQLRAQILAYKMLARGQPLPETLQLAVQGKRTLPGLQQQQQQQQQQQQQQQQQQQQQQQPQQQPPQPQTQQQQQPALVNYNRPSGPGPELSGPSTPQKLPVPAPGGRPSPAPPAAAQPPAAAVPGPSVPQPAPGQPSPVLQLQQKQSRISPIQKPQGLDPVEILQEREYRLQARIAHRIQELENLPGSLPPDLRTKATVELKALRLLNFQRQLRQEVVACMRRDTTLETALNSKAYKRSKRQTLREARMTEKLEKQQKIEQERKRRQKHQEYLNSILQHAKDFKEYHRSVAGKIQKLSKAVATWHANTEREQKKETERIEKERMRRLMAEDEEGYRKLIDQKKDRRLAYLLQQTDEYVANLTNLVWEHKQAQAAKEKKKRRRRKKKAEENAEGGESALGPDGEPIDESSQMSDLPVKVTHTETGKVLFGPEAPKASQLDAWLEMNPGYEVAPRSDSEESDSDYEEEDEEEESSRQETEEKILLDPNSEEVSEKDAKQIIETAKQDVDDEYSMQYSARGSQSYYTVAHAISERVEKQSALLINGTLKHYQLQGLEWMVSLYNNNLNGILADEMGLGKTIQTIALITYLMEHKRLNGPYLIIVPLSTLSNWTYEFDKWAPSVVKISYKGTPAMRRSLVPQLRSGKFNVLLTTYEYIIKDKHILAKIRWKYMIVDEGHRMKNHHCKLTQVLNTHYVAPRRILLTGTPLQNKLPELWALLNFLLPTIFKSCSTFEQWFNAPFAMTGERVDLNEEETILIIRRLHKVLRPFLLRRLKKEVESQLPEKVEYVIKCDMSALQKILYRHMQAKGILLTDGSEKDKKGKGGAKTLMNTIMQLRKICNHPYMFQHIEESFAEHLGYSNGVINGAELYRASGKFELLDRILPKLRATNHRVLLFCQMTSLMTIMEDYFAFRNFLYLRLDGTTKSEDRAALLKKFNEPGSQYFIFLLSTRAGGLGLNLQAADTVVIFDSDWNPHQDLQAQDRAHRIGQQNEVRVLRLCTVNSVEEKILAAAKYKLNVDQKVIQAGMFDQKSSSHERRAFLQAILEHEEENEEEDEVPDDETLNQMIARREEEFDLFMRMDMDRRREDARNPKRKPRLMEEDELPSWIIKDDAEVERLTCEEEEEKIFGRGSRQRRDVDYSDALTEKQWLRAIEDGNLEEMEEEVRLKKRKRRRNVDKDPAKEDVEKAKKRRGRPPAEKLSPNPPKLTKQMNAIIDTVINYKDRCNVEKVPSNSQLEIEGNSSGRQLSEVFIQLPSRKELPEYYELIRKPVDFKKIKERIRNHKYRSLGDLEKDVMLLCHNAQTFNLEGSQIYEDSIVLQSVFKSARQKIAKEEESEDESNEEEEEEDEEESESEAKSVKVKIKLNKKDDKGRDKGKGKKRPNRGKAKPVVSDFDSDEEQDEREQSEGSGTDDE
T2 sequence (P51532 whole entry, the tested form may be a part): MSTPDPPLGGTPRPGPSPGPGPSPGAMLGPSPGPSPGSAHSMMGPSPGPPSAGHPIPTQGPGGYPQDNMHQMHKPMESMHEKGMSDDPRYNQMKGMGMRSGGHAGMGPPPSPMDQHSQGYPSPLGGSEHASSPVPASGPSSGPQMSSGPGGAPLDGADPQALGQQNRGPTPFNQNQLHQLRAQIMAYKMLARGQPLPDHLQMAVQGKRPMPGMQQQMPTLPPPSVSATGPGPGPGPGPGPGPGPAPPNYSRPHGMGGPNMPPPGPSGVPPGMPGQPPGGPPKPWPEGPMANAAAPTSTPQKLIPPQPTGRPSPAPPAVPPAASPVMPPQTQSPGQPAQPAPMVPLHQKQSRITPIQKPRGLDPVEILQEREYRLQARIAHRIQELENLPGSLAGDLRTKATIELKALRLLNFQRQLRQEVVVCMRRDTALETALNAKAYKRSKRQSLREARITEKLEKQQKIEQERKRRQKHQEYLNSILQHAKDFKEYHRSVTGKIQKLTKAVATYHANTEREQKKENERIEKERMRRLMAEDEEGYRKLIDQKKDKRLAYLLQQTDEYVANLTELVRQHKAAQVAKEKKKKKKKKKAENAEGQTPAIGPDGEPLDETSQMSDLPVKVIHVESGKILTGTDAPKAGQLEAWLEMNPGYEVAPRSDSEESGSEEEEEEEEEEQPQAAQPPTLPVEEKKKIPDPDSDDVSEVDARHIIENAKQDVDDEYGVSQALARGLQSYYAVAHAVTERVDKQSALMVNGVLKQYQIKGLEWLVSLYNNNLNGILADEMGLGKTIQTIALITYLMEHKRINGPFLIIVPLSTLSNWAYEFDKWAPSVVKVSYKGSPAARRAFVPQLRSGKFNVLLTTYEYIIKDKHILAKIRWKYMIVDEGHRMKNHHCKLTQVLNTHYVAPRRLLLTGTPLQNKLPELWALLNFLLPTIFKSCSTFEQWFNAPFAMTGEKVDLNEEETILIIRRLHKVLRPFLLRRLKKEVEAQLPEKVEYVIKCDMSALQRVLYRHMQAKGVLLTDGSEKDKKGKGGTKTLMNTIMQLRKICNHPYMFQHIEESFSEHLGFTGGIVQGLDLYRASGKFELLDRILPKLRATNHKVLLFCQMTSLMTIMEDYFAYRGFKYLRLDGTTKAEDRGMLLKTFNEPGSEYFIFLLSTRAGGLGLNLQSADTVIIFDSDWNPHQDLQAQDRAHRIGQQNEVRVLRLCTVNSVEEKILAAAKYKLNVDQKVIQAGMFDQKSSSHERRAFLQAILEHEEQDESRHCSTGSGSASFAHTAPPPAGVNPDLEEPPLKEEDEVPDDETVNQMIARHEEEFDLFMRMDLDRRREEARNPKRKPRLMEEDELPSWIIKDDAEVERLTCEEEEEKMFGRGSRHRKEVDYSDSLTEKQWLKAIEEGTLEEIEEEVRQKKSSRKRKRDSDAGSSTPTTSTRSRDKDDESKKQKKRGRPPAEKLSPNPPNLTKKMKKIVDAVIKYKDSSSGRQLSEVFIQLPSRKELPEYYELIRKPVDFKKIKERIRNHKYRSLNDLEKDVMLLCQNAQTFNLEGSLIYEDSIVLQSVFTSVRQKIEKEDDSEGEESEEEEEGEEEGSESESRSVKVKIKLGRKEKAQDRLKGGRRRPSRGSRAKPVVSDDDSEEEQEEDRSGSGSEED

DC50 (HiBit-BRM fusion protein) | Dmax [1] | DC50 ([1]; read-out: BRMG1 HiBit Degradation IC50) | SMILES | BRM HiBit Degradation Maximum (%) (HiBit-BRM fusion protein)
> 10 nM | < 50% | – | Cc1ncsc1-c1ccc([C@H](C)NC(=O)[C@@H]2C[C@@H](O)CN2C(=O)[C@@H](c2cc(-c3cnc(CN4CCC(c5cc6cc(-c7ccccc7O)nnc6s5)CC4)nc3)no2)C(C)C)cc1 (single isomer, unassigned) [Compound 99] | B (“B” indicates maximum degradation ≥50%)
> 10 nM | < 50% | > 1000 nM | Cc1ncsc1-c1ccc([C@H](C)NC(=O)[C@@H]2C[C@@H](O)CN2C(=O)[C@@H](c2cc(Oc3cnc(N4CCC(c5sc6nnc(-c7ccccc7O)cc6c5C)CC4)nc3)no2)C(C)C)cc1 (single isomer, unassigned) [Compound 51] | A (“A” indicates maximum degradation ≥75%)
